Data taken from ChEMBL document CHEMBL3091433, “Structure-based design of substituted hexafluoroisopropanol-arylsulfonamides as modulators of RORc” (Bioorg Med Chem Lett, 2013).

Assays:
[1] = target: T1, Oxysterols receptor LXR-alpha (Homo sapiens, UniProt Q13133)
T1 sequence (Q13133 whole entry): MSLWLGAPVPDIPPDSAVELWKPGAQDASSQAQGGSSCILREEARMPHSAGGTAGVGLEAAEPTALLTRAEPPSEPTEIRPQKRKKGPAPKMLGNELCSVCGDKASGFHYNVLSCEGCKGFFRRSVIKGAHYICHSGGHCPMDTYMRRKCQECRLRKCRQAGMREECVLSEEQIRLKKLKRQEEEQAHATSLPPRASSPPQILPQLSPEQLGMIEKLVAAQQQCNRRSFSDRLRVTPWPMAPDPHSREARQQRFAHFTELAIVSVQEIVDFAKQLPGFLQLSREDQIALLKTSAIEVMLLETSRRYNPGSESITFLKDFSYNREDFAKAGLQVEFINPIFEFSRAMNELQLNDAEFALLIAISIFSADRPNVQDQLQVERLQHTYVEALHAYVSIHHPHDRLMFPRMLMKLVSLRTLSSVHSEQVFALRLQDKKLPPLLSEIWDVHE
Description: Agonist activity at GAL4-fused human LXRalpha expressed in HEK293T cells assessed as activation of basal transcriptional activity after 20 hrs by dual-glo luciferase reporter gene assay

[2] = target: T2, Oxysterols receptor LXR-beta (Homo sapiens, UniProt P55055)
T2 sequence (P55055 whole entry): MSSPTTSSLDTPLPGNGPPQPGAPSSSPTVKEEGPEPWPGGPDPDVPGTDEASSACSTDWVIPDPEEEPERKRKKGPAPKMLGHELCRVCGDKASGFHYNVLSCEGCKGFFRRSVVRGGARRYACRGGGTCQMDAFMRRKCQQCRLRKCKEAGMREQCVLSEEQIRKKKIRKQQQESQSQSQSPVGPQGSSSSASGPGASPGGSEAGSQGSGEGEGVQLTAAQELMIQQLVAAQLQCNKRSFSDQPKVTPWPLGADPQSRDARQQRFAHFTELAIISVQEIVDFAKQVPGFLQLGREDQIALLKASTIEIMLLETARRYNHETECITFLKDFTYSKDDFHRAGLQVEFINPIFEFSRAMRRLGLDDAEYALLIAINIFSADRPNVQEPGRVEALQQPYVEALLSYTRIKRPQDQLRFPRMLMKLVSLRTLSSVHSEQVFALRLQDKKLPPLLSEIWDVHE
Description: Agonist activity at GAL4-fused human LXRbeta expressed in HEK293T cells assessed as activation of basal transcriptional activity after 20 hrs by dual-glo luciferase reporter gene assay

[3] = target: T3, Nuclear receptor ROR-gamma (Homo sapiens, UniProt P51449)
T3 sequence (P51449 whole entry): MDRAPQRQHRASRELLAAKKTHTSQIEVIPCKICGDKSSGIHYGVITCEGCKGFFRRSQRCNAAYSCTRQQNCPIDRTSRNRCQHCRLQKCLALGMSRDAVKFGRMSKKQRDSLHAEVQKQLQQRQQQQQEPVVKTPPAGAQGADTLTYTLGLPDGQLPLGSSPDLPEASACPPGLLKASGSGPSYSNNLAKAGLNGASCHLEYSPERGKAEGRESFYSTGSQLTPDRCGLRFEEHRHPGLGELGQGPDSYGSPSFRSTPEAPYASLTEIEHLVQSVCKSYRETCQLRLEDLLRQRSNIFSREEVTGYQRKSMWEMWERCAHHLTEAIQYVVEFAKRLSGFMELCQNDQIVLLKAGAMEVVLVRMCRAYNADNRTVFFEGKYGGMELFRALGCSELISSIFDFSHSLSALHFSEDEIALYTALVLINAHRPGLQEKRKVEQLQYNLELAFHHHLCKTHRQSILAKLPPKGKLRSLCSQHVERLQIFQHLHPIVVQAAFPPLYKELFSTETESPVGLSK
Description: Inverse agonist activity at N-terminal 6xHis-tagged human RORc ligand binding domain (241 to 486) expressed in bacterial expression system assessed as inhibition of SRC1 co-activator peptide recruitment after 3 hrs by TR-FRET analysis

[4] = target: T3, Nuclear receptor ROR-gamma; remark: listed apart in the source
Description: Displacement of [3H2]-25-hydroxycholesterol from N-terminal 6xHis-tagged human RORc ligand binding domain (241 to 486) expressed in bacterial expression system after 3 hrs by scintillation counting analysis

[5] = target: T4, Nuclear receptor subfamily 1 group I member 2 (Homo sapiens, UniProt O75469); assay: Agonist activity at GAL4-fused human PXR expressed in HEK293T cells assessed as activation of basal transcriptional activity after 20 hrs by dual-glo luciferase reporter gene assay; type: cell-based, HEK-293T
T4 sequence (O75469 whole entry): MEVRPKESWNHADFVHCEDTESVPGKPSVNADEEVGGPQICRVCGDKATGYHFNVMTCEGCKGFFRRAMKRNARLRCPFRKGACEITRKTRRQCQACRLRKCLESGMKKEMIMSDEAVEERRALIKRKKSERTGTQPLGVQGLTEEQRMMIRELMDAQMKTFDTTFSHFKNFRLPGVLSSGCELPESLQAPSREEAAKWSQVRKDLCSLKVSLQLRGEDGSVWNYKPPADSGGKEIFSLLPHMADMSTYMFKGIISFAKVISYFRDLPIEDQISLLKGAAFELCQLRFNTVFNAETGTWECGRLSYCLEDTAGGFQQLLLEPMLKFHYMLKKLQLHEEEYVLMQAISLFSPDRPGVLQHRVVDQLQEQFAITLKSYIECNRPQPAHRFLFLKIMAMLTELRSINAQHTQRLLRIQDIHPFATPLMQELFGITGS

[6] = target: T5, Bile acid receptor (Homo sapiens, UniProt Q96RI1); assay: Agonist activity at GAL4-fused human FXR expressed in HEK293T cells assessed as activation of basal transcriptional activity after 20 hrs by dual-glo luciferase reporter gene assay; type: cell-based, HEK-293T
T5 sequence (Q96RI1 whole entry): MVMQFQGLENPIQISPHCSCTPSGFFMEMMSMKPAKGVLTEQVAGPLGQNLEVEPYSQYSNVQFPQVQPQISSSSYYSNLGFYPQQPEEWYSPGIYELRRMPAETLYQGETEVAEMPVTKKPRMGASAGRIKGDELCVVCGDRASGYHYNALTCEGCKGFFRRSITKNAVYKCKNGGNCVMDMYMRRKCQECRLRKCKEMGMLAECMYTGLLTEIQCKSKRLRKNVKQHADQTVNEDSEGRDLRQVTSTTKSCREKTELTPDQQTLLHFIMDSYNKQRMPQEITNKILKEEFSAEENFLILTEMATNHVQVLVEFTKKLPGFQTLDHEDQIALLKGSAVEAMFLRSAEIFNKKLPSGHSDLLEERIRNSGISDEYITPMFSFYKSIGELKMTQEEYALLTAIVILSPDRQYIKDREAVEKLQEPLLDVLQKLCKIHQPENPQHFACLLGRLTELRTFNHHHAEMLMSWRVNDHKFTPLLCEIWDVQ

[7] = target: T6, PXR (NR1I2) (Homo sapiens, UniProt O75469); assay: in vitro; conditions: HEK293T cells expressing GAL4-fused human PXR
T6 sequence (O75469 whole entry): T4 sequence (O75469 whole entry)
Description: Agonist activity at GAL4-fused human PXR expressed in HEK293T cells assessed as activation of basal transcriptional activity after 20 hrs by dual-glo luciferase reporter gene assay relative to apo-receptor

SMILES: O=S(=O)(c1ccc(F)cc1)N(CC(F)(F)F)c1ccc(C(O)(C(F)(F)F)C(F)(F)F)cc1
- EC50 [1]: 719 nM
- EC50 [2]: 385 nM
- EC50 [3]: 19 nM
- IC50 [4]: 34 nM
- EC50 [5]: 194 nM
- EC50 [6]: 1000 nM
- fold induction at 20 h [7]: 30

SMILES: CCN(c1ccc(C(O)(C(F)(F)F)C(F)(F)F)cc1)S(=O)(=O)c1ccccc1
- EC50 [1]: 3000 nM
- EC50 [2]: 246 nM
- EC50 [3]: 190 nM
- IC50 [4]: 245 nM
- EC50 [5]: 39 nM
- EC50 [6]: 9000 nM
- fold induction at 20 h [7]: 24

SMILES: N#Cc1ccc(S(=O)(=O)N(CC(F)(F)F)c2ccc(C(O)(C(F)(F)F)C(F)(F)F)cc2)cc1
- EC50 [1]: > 10000 nM
- EC50 [2]: 902 nM
- EC50 [3]: 61 nM
- IC50 [4]: 50 nM
- EC50 [5]: 571 nM
- EC50 [6]: 3000 nM
- fold induction at 20 h [7]: 27
